The supplement of paper PMC11061612

Assays:
Carboplatin = compound: C1CC(C1)(C(=O)[O-])C(=O)[O-].N.N.[Pt+2] [Carboplatin]; conditions: max 10 µM
Outline: (§1)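 Cancer cell lines were seeded in 1536-well plates in 7.5 μl DMEM/F12 or RPMI with 10% FBS, held 24 hours at 37°C and 5% CO2, then dosed for 72 hours (final DMSO typically 0.2%). Viability was read by CellTiter-Glo 2.0 luminescence and scaled between blank-well and DMSO-well means. The single-agent IC50 comes from dose responses fitted to a two-parameter logistic curve with a non-linear mixed effects model.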

AZD5363 = compound: C1CN(CCC1(C(=O)N[C@@H](CCO)C2=CC=C(C=C2)Cl)N)C3=NC=NC4=C3C=CN4 [AZD5363]; conditions: max 10 µM
Outline: as §1

AZD1775 = compound: C=CCn1c(=O)c2cnc(Nc3ccc(N4CCN(C)CC4)cc3)nc2n1-c1cccc(C(C)(C)O)n1 [AZD1775]; conditions: max 3 µM
Outline: as §1

Trametinib = compound: CC(=O)Nc1cccc(-n2c(=O)n(C3CC3)c(=O)c3c(Nc4ccc(I)cc4F)n(C)c(=O)c(C)c32)c1 [Trametinib]; conditions: max 1 µM
Outline: as §1

Paclitaxel = compound: CC(=O)O[C@H]1C(=O)[C@@]2(C)[C@H]([C@H](OC(=O)c3ccccc3)[C@]3(O)C[C@H](OC(=O)[C@H](O)[C@@H](NC(=O)c4ccccc4)c4ccccc4)C(C)=C1C3(C)C)[C@]1(OC(C)=O)CO[C@@H]1C[C@@H]2O [Paclitaxel]; conditions: max 3 µM
Outline: as §1

Palbociclib = compound: CC(=O)c1c(C)c2cnc(Nc3ccc(N4CCNCC4)cn3)nc2n(C2CCCC2)c1=O [Palbociclib]; conditions: max 10 µM
Outline: as §1

AZD1390 = compound: CC(C)n1c(=O)n(C)c2cnc3cc(F)c(-c4ccc(OCCCN5CCCCC5)nc4)cc3c21 [AZD1390]; conditions: max 0.3 µM
Outline: as §1

Venetoclax = compound: CC1(C)CCC(CN2CCN(c3ccc(C(=O)NS(=O)(=O)c4ccc(NCC5CCOCC5)c([N+](=O)[O-])c4)c(Oc4cnc5[nH]ccc5c4)c3)CC2)=C(c2ccc(Cl)cc2)C1 [Venetoclax]; conditions: max 1 µM
Outline: as §1

Dasatinib = compound: CC1=C(C(=CC=C1)Cl)NC(=O)C2=CN=C(S2)NC3=CC(=NC(=N3)C)N4CCN(CC4)CCO [Dasatinib]; conditions: max 2 µM
Outline: as §1

SG3199 = compound: CC1=CN2[C@@H](C1)C=NC3=CC(=C(C=C3C2=O)OC)OCCCCCOC4=C(C=C5C(=C4)N=C[C@@H]6CC(=CN6C5=O)C)OC [SG3199]; conditions: max 0.001 µM
Outline: as §1

AZD2811 = compound: CCN(CCO)CCCOc1ccc2c(Nc3cc(CC(=O)Nc4cccc(F)c4)[nH]n3)ncnc2c1 [AZD2811]; conditions: max 1 µM
Outline: as §1

SN-38 = compound: CCc1c2c(nc3ccc(O)cc13)-c1cc3c(c(=O)n1C2)COC(=O)[C@]3(O)CC [SN-38]; conditions: max 0.3 µM
Outline: as §1

AZD0156 = compound: CN(C)CCCOc1ccc(-c2ccc3ncc4c(c3c2)n(C2CCOCC2)c(=O)n4C)cn1 [AZD0156]; conditions: max 3 µM
Outline: as §1

Alisertib = compound: COc1cc(Nc2ncc3c(n2)-c2ccc(Cl)cc2C(c2c(F)cccc2OC)=NC3)ccc1C(=O)O [Alisertib]; conditions: max 10 µM
Outline: as §1

Etoposide = compound: COc1cc([C@@H]2c3cc4c(cc3[C@@H](O[C@@H]3O[C@@H]5CO[C@@H](C)O[C@H]5[C@H](O)[C@H]3O)[C@H]3COC(=O)[C@H]23)OCO4)cc(OC)c1O [Etoposide]; conditions: max 10 µM
Outline: as §1

Gefitinib = compound: COc1cc2ncnc(Nc3ccc(F)c(Cl)c3)c2cc1OCCCN1CCOCC1 [Gefitinib]; conditions: max 10 µM
Outline: as §1

Prexasertib = compound: COc1cccc(OCCCN)c1-c1cc(Nc2cnc(C#N)cn2)n[nH]1 [Prexasertib]; conditions: max 1 µM
Outline: as §1

Doxorubicin = compound: COc1cccc2c1C(=O)c1c(O)c3c(c(O)c1C2=O)C[C@@](O)(C(=O)CO)C[C@@H]3O[C@H]1C[C@H](N)[C@H](O)[C@H](C)O1 [Doxorubicin]; conditions: max 1 µM
Outline: as §1

AZD5153 = compound: COc1nnc2ccc(N3CCC(c4ccc(OCCN5CCN(C)C(=O)[C@H]5C)cc4)CC3)nn12 [AZD5153]; conditions: max 1 µM
Outline: as §1

Lapatinib = compound: CS(=O)(=O)CCNCc1ccc(-c2ccc3ncnc(Nc4ccc(OCc5cccc(F)c5)c(Cl)c4)c3c2)o1 [Lapatinib]; conditions: max 10 µM
Outline: as §1

AZD8186 = compound: C[C@@H](Nc1cc(F)cc(F)c1)c1cc(C(=O)N(C)C)cc2c(=O)cc(N3CCOCC3)oc12 [AZD8186]
Outline: as §1

Crizotinib = compound: C[C@@H](Oc1cc(-c2cnn(C3CCNCC3)c2)cnc1N)c1c(Cl)ccc(F)c1Cl [Crizotinib]; conditions: max 10 µM
Outline: as §1

Savolitinib = compound: C[C@@H](c1ccc2nccn2c1)n1nnc2ncc(-c3cnn(C)c3)nc21 [Savolitinib]; conditions: max 1 µM
Outline: as §1

AZD6738 = compound: C[C@@H]1COCCN1C2=NC(=NC(=C2)C3(CC3)[S@](=N)(=O)C)C4=C5C=CNC5=NC=C4 [AZD6738]; conditions: max 10 µM
Outline: as §1

AZD5991 = compound: Cc1c2c(nn1C)CSCc1cc(n(C)n1)CSc1cc(c3ccccc3c1)OCCCc1c(C(=O)O)n(C)c3c-2c(Cl)ccc13 [AZD5991]; conditions: max 1 µM
Outline: as §1

AZD7648 = compound: Cc1cc2ncnn2cc1Nc1ncc2c(n1)n(C1CCOCC1)c(=O)n2C [AZD7648]; conditions: max 10 µM
Outline: as §1

Taselisib = compound: Cc1nc(-c2cn3c(n2)-c2ccc(-c4cnn(C(C)(C)C(N)=O)c4)cc2OCC3)n(C(C)C)n1 [Taselisib]; conditions: max 10 µM
Outline: as §1

Selumetinib = compound: Cn1cnc2c(F)c(Nc3ccc(Br)cc3Cl)c(C(=O)NOCCO)cc21 [Selumetinib]; conditions: max 10 µM
Outline: as §1

SRA737 = compound: N#Cc1cnc(Nc2cc(NC[C@H]3CNCCO3)c(C(F)(F)F)cn2)cn1 [SRA737]; conditions: max 10 µM
Outline: as §1

MK-2206 = compound: NC1(c2ccc(-c3nc4ccn5c(=O)[nH]nc5c4cc3-c3ccccc3)cc2)CCC1 [MK-2206]; conditions: max 10 µM
Outline: as §1

Gemcitabine = compound: Nc1ccn([C@@H]2O[C@H](CO)[C@@H](O)C2(F)F)c(=O)n1 [Gemcitabine]; conditions: max 0.3 µM
Outline: as §1

[1] = compound: O=C(Nc1ccc2[nH]nc(-c3ccncc3)c2c1)[C@@H]1CCN(CC(=O)N2CCN(c3ccc(-c4ncccn4)cc3)CC2)C1; conditions: max 5 µM
Outline: as §1

Olaparib = compound: O=C(c1cc(Cc2n[nH]c(=O)c3ccccc23)ccc1F)N1CCN(C(=O)C2CC2)CC1 [Olaparib]; conditions: max 10 µM
Outline: as §1

5-Fluorouracil = compound: O=c1[nH]cc(F)c(=O)[nH]1 [5-Fluorouracil]; conditions: max 20 µM
Outline: as §1

Capivasertib = compound: C1CN(CCC1(C(=O)N[C@@H](CCO)C2=CC=C(C=C2)Cl)N)C3=NC=NC4=C3C=CN4 [Capivasertib]; conditions: max 10 µM
Outline: as §1

AZD4320 = compound: CN(CC[C@H](CSC1=CC=CC=C1)NC2=C(C=C(C=C2)S(=O)(=O)NC(=O)C3=CC=C(C=C3)N4CCC(CC4)[C@H](C5=CC=CC=C5C6=CC=C(C=C6)Cl)O)S(=O)(=O)C(F)(F)F)CCO [AZD4320]; conditions: max 1 µM
Outline: as §1

Row | Cell Line | IC50, cell viability 72 h (Carboplatin) [µM] | IC50, cell viability 72 h (AZD5363) [µM] | IC50, cell viability 72 h (AZD1775) [µM] | IC50, cell viability 72 h (Trametinib) [µM] | IC50, cell viability 72 h (Paclitaxel) [µM] | IC50, cell viability 72 h (Palbociclib) [µM] | IC50, cell viability 72 h (AZD1390) [µM] | IC50, cell viability 72 h (Venetoclax) [µM] | IC50, cell viability 72 h (Dasatinib) [µM] | IC50, cell viability 72 h (SG3199) [µM] | IC50, cell viability 72 h (AZD2811) [µM] | IC50, cell viability 72 h (SN-38) [µM] | IC50, cell viability 72 h (AZD0156) [µM] | IC50, cell viability 72 h (Alisertib) [µM] | IC50, cell viability 72 h (Etoposide) [µM] | IC50, cell viability 72 h (Gefitinib) [µM] | IC50, cell viability 72 h (Prexasertib) [µM] | IC50, cell viability 72 h (Doxorubicin) [µM] | IC50, cell viability 72 h (AZD5153) [µM] | IC50, cell viability 72 h (Lapatinib) [µM] | IC50, cell viability 72 h (AZD8186; max 10 µM) [µM] | IC50, cell viability 72 h (Crizotinib) [µM] | IC50, cell viability 72 h (Savolitinib) [µM] | IC50, cell viability 72 h (AZD6738) [µM] | IC50, cell viability 72 h (AZD5991) [µM] | IC50, cell viability 72 h (AZD7648) [µM] | IC50, cell viability 72 h (Taselisib) [µM] | IC50, cell viability 72 h (Selumetinib) [µM] | IC50, cell viability 72 h (SRA737) [µM] | IC50, cell viability 72 h (MK-2206) [µM] | IC50, cell viability 72 h (Gemcitabine) [µM] | IC50, cell viability 72 h [1] [µM] | IC50, cell viability 72 h (Olaparib) [µM] | IC50, cell viability 72 h (5-Fluorouracil) [µM] | IC50, cell viability 72 h (Capivasertib) [µM] | IC50, cell viability 72 h (AZD4320) [µM] | IC50, cell viability 72 h (AZD8186; max 3 µM) [µM]
1 | LS-123 (Colorectal Carcinoma) | > 10 | > 10 | 2.92 | 0.395 | 1.21 | > 10 | > 0.3 | > 1 | 0.557 | > 0.001 | > 1 | > 0.3 | > 3 | > 10 | > 10 | > 10 | 0.0964 | 0.611 | > 1 | > 10 | > 10 | > 10 | > 1 | > 10 | > 1 | > 10 | 1.94 | > 10 | > 10 | > 10 | > 0.3 | 2.73 | > 10 | > 20 |  |  | 
2 | NCI-H1568 (Lung Adenocarcinoma) |  |  | 1.76 | > 1 |  | > 10 | > 0.3 | > 1 | > 2 | > 0.001 | > 1 | 0.297 | > 3 | > 10 |  | > 10 | 0.424 | > 1 | > 1 | > 10 |  | > 10 | > 1 | > 10 | > 1 | > 10 | > 10 | > 10 |  |  |  |  | > 10 |  | > 10 | > 1 | > 3
3 | NCI-H2052 (Mesothelioma) |  |  | > 3 | > 1 |  | > 10 | > 0.3 | > 1 | 1.51 | > 0.001 | > 1 | 0.0385 | > 3 | > 10 |  | > 10 | 0.574 | > 1 | > 1 | > 10 |  | > 10 | > 1 | > 10 | > 1 | > 10 | 3.67 | > 10 |  | > 10 |  |  | > 10 |  | > 10 | > 1 | > 3
4 | NCI-H2722 (Mesothelioma) |  |  | > 3 | > 1 |  | > 10 | > 0.3 | > 1 | > 2 | > 0.001 | > 1 | > 0.3 | > 3 | > 10 |  | > 10 | > 1 | > 1 | > 1 | > 10 |  | > 10 | > 1 | > 10 | > 1 | > 10 | > 10 | > 10 |  |  |  |  | > 10 |  | > 10 | > 1 | > 3
5 | NUGC-4 (Gastric Carcinoma) |  |  | 2.53 | > 1 |  | > 10 | > 0.3 | > 1 | > 2 | > 0.001 | > 1 | > 0.3 | > 3 | > 10 |  | > 10 | 0.948 | > 1 | 0.582 | > 10 |  | > 10 | > 1 | > 10 | > 1 | > 10 | > 10 | 5.68 |  |  |  |  | > 10 |  | > 10 | > 1 | > 3
6 | OV-56 (Ovarian Carcinoma) |  |  | > 3 | > 1 |  | > 10 | > 0.3 | > 1 | > 2 | > 0.001 | > 1 | 0.025 | > 3 | > 10 |  | > 10 | 0.0422 | > 1 | > 1 | > 10 |  | > 10 | > 1 | > 10 | > 1 | > 10 | > 10 | > 10 |  |  |  |  | > 10 |  | > 10 | > 1 | > 3
7 | SW1573 (Lung Adenocarcinoma) |  |  | > 3 | > 1 |  | > 10 | > 0.3 | > 1 | > 2 | > 0.001 | > 1 | 0.0522 | > 3 | > 10 |  | > 10 | > 1 | > 1 | > 1 | > 10 |  | > 10 | > 1 | > 10 | > 1 | > 10 | > 10 | > 10 |  |  |  |  | > 10 |  | > 10 | > 1 | > 3
